# Measurements from patent US9834514B2, “Antibiotic sensitivity-restoring and photosensitive agents” (New Mexico Tech Research Foundation, priority 2015, dated 2017).
# Like-named read-outs stand apart in the source and are kept apart here.
# What was measured:
# [1] = tested on: VRE (ATCC No. 51299); assay: Light-activated killing, colony counts; type: cell-based, Enterococcus faecalis; details: for Dark Toxicity: no light; for Light Toxicity: white light 2 minutes
# Procedure: (§1) Dose-dependent effects of treating bacteria with compound 1 and irradiation with white light were assessed by treating 10^8 CFU/mL of cells with compound 1, followed by irradiation with white light for 2 minutes. Compound 1 was added at a specific concentration to 1 mL of a 10^8 CFU/mL suspension of the respective bacterial cells, and the cells were incubated at 37° C. for approximately 45 minutes on a rotary shaker at 150 rpm. 0.5 mL of the cell suspension was removed and placed into the wells of a sterile ceramic drop plate, and then the cells were irradiated with white light from a Lumacare™ LC 122A light source for 2 minutes at a distance of approximately 3 cm. The time and distance of the light application delivered about 85 J/cm^2 of 400-700 nm light to the sample. After being irradiated, ten-fold dilutions were made of each cell sample. The dilutions were drip-streaked onto a tryptic soy agar (TSA) plate and incubated at 37° C. for 18-24 hours. Enumeration of bacteria was determined from the dilution, which produced a drip-streak containing approximately 30-300 colonies. After counting the colonies, the CFU/mL was calculated by applying the respective dilution factor and a factor of 100 to account for the 10 μL of sample taken. Appropriate controls were prepared, including cells with no treatment, cells with only compound 1 added, and cells only treated with light.
# The error bars in FIG. 11 represent the variations between three replicate determinations.
# [2] = tested on: HeLa cells; assay: Compound 1 in DMSO versus liposomes on HeLa cells with light (MTT); type: cell-based; details: 1 μM; for Compound 1 pre-incubation to max killing: in the dark
# Procedure: An effective period of pre-incubation with the drug in the dark was determined to be about 28 hours for compound 1 in DMSO and 60 hours for liposomal delivery of compound 1. The cells were then irradiated with continuous white light for 2 minutes at a distance of 6.5 cm using a LumaCare™ light source. An MTT assay was carried out to evaluate cell viability 48 hours later.
# [3] = tested on: S. mutans Ward's 85W 2357; assay: Resensitization to antibiotics (log reduction, TABLE 29); type: cell-based; details: compound 1 μM; Light (2 min)
# [4] = tested on: S. mutans (Ward's 85W 2357); assay: MIC against S. mutans; type: cell-based; details: Streptococcus mutans; compound alone
# From the text: (§2) The error bars in FIG. 13 represent the variations between three replicate determinations.
# [5] = tested on: B16F10 (mouse skin melanoma); assay: Light-activated killing of cell lines (IC50 with/without light); type: cell-based
# Procedure: (§3) TABLE 15 depicts the IC50 of compounds in the presence or absence of light for human cell lines. The cell lines used were HeLa (human cervical adenocarcinoma), U-87 MG (human brain gliobastoma), MES-SA (human uterine sarcoma), MES-SA/D×5 (human uterine sarcoma grown in presence of doxorubicin), NCI-H441 (human lung papillary adenocarcinoma), A549 (human lung carcinoma), WI-38 (human embryonic lung normal), MCF7 (human breast adenocarcinoma), SW1088 (human brain astrocytoma), B16F10 (mouse skin melanoma), NIH-3T3 (mouse fibroblast), and Jurkat (human lymphoblastoma). “1-Sol” in TABLE 15 was generated by dissolving compound 1 and potassium hydroxide at a 1:1 ratio in a DMSO/water solution. The cells were irradiated with continuous white light using a LumaCare™ light source for 2 minutes at a distance of 6.5 cm from the cells.
# [6] = tested on: MCF7 (human breast adenocarcinoma); assay: as above; type: cell-based
# Procedure: as §3
# [7] = tested on: U-87 MG (human brain gliobastoma); assay: as above; type: cell-based
# Procedure: as §3
# [8] = tested on: NCI-H441 (human lung papillary adenocarcinoma); assay: as above; type: cell-based
# Procedure: as §3
# [9] = tested on: MCF7A; assay: as above; type: cell-based
# Procedure: as §3
# [10] = tested on: A549 (human lung carcinoma); assay: as above; type: cell-based
# Procedure: as §3
# [11] = tested on: WI-38 (human embryonic lung normal); assay: as above; type: cell-based
# Procedure: as §3
# [12] = tested on: SW1088 (human brain astrocytoma); assay: as above; type: cell-based
# Procedure: as §3
# [13] = tested on: MES-SA (human uterine sarcoma); assay: as above; type: cell-based
# Procedure: as §3
# [14] = tested on: S. aureus (ATCC No. 29213); assay: Light-activated killing, colony counts; type: cell-based; details: for Dark Toxicity: no light; for Light Toxicity: white light 2 minutes
# Procedure: as §1
# The error bars in FIG. 10 represent the variations between three replicate determinations.
# [15] = tested on: E. coli; assay: Treatment with compound 1 and PMB at fixed concentrations, with and without white light; type: cell-based
# From the text: FIG. 54 is an example of the treatment of E. coli with compound 1 and PMB at fixed concentrations with and without irradiation using white light (λ).
# [16] = tested on: S. aureus ATCC 29213; assay: Resensitization to antibiotics (log reduction, TABLE 29); type: cell-based
# [17] = tested on: S. mutans (Ward's 85W 2357); assay: Light-activated killing, colony counts; type: cell-based; details: for Dark Toxicity: no light; for Light Toxicity: white light 2 minutes
# Procedure: as §1, §2
# [18] = 2 min, white light 2 minutes, read-out: Compound + light IC50
# [19] = no light, read-out: Compound IC50
smiles,measurement,setting,value
Clc1ccc(/C=C/c2[nH]c3ccccc3c2/C=C/c2ccc(Cl)cc2)cc1 [Compound 1],Dark Toxicity,[1]; 0.1 μM,6.50 × 10^8 ± 5.40 × 10^8 CFU/mL
same,Light Toxicity,[1]; 0.1 μM,7.00 × 10^2 ± 8.19 × 10^2 CFU/mL
same,Dark Toxicity,[1]; 0.5 μM,6.50 × 10^8 ± 1.32 × 10^8 CFU/mL
same,Light Toxicity,[1]; 0.5 μM,2.67 × 10^2 ± 4.62 × 10^2 CFU/mL
same,Dark Toxicity,[1]; 1.0 μM,6.20 × 10^8 ± 2.62 × 10^8 CFU/mL
same,Light Toxicity,[1]; 1.0 μM,None detected (<100 CFU/mL)
same,Dark Toxicity,[1]; 5.0 μM,4.55 × 10^5 ± 8.87 × 10^5 CFU/mL
same,Light Toxicity,[1]; 5.0 μM,None detected (<100 CFU/mL)
same,"Compound 1 (no light), killing",[2],6% killing
same,"Compound 1 + light, killing","[2]; continuous white light 2 minutes, MTT 48 hours later",77% killing
same,Compound 1 pre-incubation to max killing,[2],28 h
same,Compound 1 pre-incubation to max killing,[2]; listed as compound 1,about 28 hours
same,Log Reduction,[3],5-6
same,MIC,[4],50 to 100 µM
same,IC50,"[5]; B16-F10, 2 min, white light 2 minutes, read-out: Compound + light IC50",410 ± 220 nM
same,IC50,"[5]; B16-F10, no light, read-out: Compound IC50",18700 ± 990 nM
same,IC50,[6]; [18],330 ± 40 nM
same,IC50,[6]; [19],17800 ± 220 nM
same,IC50,"[7]; 2 min, U-87 MG (spheroids), white light 2 minutes, read-out: Compound + light IC50",450 nM
same,IC50,[7]; [18],560 ± 20 nM
same,IC50,"[7]; U-87 MG (spheroids), no light, read-out: Compound IC50",> 40000 nM
same,IC50,[7]; [19],44600 ± 3680 nM
same,IC50,[8]; [18],760 ± 70 nM
same,IC50,[8]; [19],50700 ± 4370 nM
same,IC50,[9]; [18],400 ± 10 nM
same,IC50,[9]; [19],24500 ± 200 nM
same,IC50,[10]; [18],840 ± 320 nM
same,IC50,[10]; [19],17400 ± 1520 nM
same,IC50,[11]; [18],330 ± 80 nM
same,IC50,[11]; [19],63400 ± 5480 nM
same,IC50,[12]; [18],470 ± 30 nM
same,IC50,[12]; [19],> 50000 nM
same,IC50,[13]; [18],360 ± 50 nM
same,IC50,[13]; [19],42700 ± 3400 nM
same,Dark Toxicity,[14]; 0.1 μM,1.63 × 10^8 ± 1.72 × 10^7 CFU/mL
same,Light Toxicity,[14]; 0.1 μM,1.20 × 10^5 ± 5.12 × 10^4 CFU/mL
same,Dark Toxicity,[14]; 0.5 μM,2.67 × 10^6 ± 2.10 × 10^6 CFU/mL
same,Light Toxicity,[14]; 0.5 μM,1.60 × 10^3 ± 1.44 × 10^3 CFU/mL
same,Dark Toxicity,[14]; 1.0 μM,1.34 × 10^6 ± 3.04 × 10^5 CFU/mL
same,Light Toxicity,[14]; 1.0 μM,None detected (<100 CFU/mL)
same,Dark Toxicity,[14]; 5.1 μM,7.13 × 10^4 ± 1.80 × 10^4 CFU/mL
same,Light Toxicity,[14]; 5.1 μM,None detected (<100 CFU/mL)
same,"cell killing with compound 1, PMB and white light",[15]; FIG. 54,PMB was more efficacious in cell killing when co-administered with compound 1 and light
same,killing by combination of compound 1 and PMB (CFU),"[15]; compared to either agent alone, FIG. 17",effective at killing E. coli
same,Log Reduction,"[16]; compound 1 μM, Light (2 min)",6
same,Log Reduction,"[16]; compound 5 μM, Norfloxacin (0.5 μg/mL)",6
same,Log Reduction,"[16]; compound 5 μM, Tetracycline (0.1 μg/mL)",5
same,Dark Toxicity,[17]; 0.1 μM,2.6 × 10^8 ± 5.57 × 10^7 CFU/mL
same,Light Toxicity,[17]; 0.1 μM,2.35 × 10^5 ± 3.50 × 10^5 CFU/mL
same,Dark Toxicity,[17]; 0.5 μM,1.44 × 10^8 ± 4.46 × 10^7 CFU/mL
same,Light Toxicity,[17]; 0.5 μM,2.33 × 10^3 ± 1.54 × 10^3 CFU/mL
same,Dark Toxicity,[17]; 1.0 μM,2.1 × 10^5 ± 1.13 × 10^5 CFU/mL
same,Light Toxicity,[17]; 1.0 μM,None Detected (<100 CFU/mL)
same,Dark Toxicity,[17]; 5.0 μM,5.5 × 10^4 ± 2.48 × 10^4 CFU/mL
same,Light Toxicity,[17]; 5.0 μM,None Detected (<100 CFU/mL)
